Results from US20180085340A1, “METHOD FOR TREATING MELANOMA” (TCI CO., LTD, priority 2016, published 2018).

Tested on: Homo sapiens skin malignant melanoma cells (A375.S2 cell line)
Experiment: MTT assay of survival of malignant melanoma cells
Format: cell-based
Conditions: for Relative survival rate (%) / Average of absorbance values (n = 4): 48 hours; for Relative survival rate (%): relative to control group, n = 4; for Average of absorbance values (n = 4): OD at 570 nm, MTT
Method: Homo sapiens skin malignant melanoma cells (A375.S2 cell line) were cultivated for 24 hours, and then divided into four groups (5×10^3 cells for each group). The four groups were respectively cultivated in the following medium for 48 hours: • 1. Control group: a MEM-NEAA medium contains 1 mmol of sodium pyruvate and 10% of FBS. • 2. High-dose group: a MEM-NEAA medium contains 1 mmol of sodium pyruvate, 10% of FBS and 1 mg/ml of the compound of formula (I) obtained from Example 1. • 3. Middle-dose group: a MEM-NEAA medium contains 1 mmol of sodium pyruvate, 10% of FBS and 0.5 mg/ml of the compound of formula (I) obtained from Example 1. • 4. Low-dose group: a MEM-NEAA medium contains 1 mmol of sodium pyruvate, 10% of FBS and 0.25 mg/ml of the compound of formula (I) obtained from Example 1.
Thereafter, the absorbance value (optical density, OD) at 570 nm of each group was determined by the MTT assay.
Steps of the above cultivation and MTT assay were repeated four times. The absorbance values were averaged in each group, and the result of the control group was served as a basis for calculating the relative survival rate of other groups.

Question: With `COc1cc([C@@H]2Oc3c(OC)cc(/C=C/C(=O)NCCc4ccc(O)cc4)cc3[C@@H]2C(=O)NCCc2ccc(O)cc2)ccc1O` [compound of formula (I), N-trans-grossaminde] as the compound, how does the “Relative survival rate (%)” value (0.25 mg/ml compound in medium) read?
Answer: 93.67%

Question: And the “Relative survival rate (%)” value (0.5 mg/ml compound in medium)?
Answer: 22.14%

Question: What about the “Relative survival rate (%)” value (1 mg/ml compound in medium) of the same compound?
Answer: 12.24%

Question: And the “Average of absorbance values (n = 4)” value (0.25 mg/ml compound)?
Answer: 0.733

Question: And the “Average of absorbance values (n = 4)” value (0.5 mg/ml compound)?
Answer: 0.1732

Question: What about the “Average of absorbance values (n = 4)” value (1 mg/ml compound) of the same compound?
Answer: 0.09575

Question: What about the “induction of apoptosis of malignant melanoma cells” value (conclusion drawn from MTT survival rates) of the same compound?
Answer: effectively induce apoptosis
